Assays:
CDK2/Cyclin E = CDK2/Cyclin E (Homo sapiens (Human), UniProt P24941); assay: Biochemical CDK inhibition assay (Caliper mobility shift), CDK2/Cyclin E; settings: 1.0 mM ATP or ATP Km, 1.25 nM enzyme, apparent IC50, read-out: CDK2/cyclin E1 IC50
Method: (§1) Inhibitory effects of the compounds of the disclosure were measured in biochemical assays that measure the enzymatic phosphorylation activity of CDK enzyme in complex of Cyclin proteins phosphorylates 7.5 micromolar fluorescently labelled peptide substrate, 5-FAM-QSPKKG-CONH2, (FL-Peptide 18, Perkin Elmer, 760362) in the presence of adenosine-5′-triphosphate (ATP) and varying concentrations of the test compound in 100 mM 2-[4-(2-hydroxyethyl)piperazin-1-yl]ethanesulfonic acid (HEPES), pH 7.5, 10 mM MgCl2, 0.015% Brij-35, 1 mM dithiothreitol (DTT), 1.0% dimethylsulfoxide (DMSO). Assays were performed at 1.0 mM ATP or at ATP Km of the CDK enzymes in complex with Cyclin proteins. Reactions proceeded until between 10% to 20% total peptides were phosphorylated at room temperature (25° C.) and were terminated with 35 mM 2,2′,2″,2′″-(ethane-1,2-diyldinitrilo)tetraacetic acid (EDTA). Product was detected using the Caliper mobility shift detection method where the phosphorylated peptide (product) and substrate were electrophoretically separated and measured. Percent activity was plotted against log concentration of compound and points to generate an apparent IC50. The following CDK enzymes in complex with different cyclin proteins were used in these assays: • CDK1/Cyclin B1, GST-tag (BPS, 40454), 1.5 nM used in the assay • CDK2/Cyclin E (Eurofins, 14-475), 1.25 nM used in the assays
(§2) For inhibitory activity against CDK2/Cyclin […], the following designations are used: ≤10 nM=A; >10-20 nM=B; >20-30 nM=C; >30-100 nM=D and >100=E. For inhibition CDK1/Cyclin B1, GST-tag: ≥500 nM=A; 100-<500 nM=B; <100 nM=C.

CDK1/Cyclin B1, GST-tag = CDK1/Cyclin B1, GST-tag (Homo sapiens (Human), UniProt P06493); assay: Biochemical CDK inhibition assay (Caliper mobility shift), CDK1/Cyclin B1; settings: 1.0 mM ATP or ATP Km, 1.5 nM enzyme, apparent IC50
Method: as §1, §2

Chain of CDK1/Cyclin B1, GST-tag (P06493 whole entry): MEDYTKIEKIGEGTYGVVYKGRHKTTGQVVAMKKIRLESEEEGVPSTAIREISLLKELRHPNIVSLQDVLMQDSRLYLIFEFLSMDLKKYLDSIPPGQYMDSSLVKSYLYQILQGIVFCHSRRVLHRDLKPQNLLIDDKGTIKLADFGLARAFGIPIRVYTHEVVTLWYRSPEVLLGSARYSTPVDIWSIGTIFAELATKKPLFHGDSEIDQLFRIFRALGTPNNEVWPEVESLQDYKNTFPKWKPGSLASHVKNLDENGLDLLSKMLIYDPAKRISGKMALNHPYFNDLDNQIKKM
Chain of CDK1/Cyclin B1, GST-tag (P14635 whole entry partner): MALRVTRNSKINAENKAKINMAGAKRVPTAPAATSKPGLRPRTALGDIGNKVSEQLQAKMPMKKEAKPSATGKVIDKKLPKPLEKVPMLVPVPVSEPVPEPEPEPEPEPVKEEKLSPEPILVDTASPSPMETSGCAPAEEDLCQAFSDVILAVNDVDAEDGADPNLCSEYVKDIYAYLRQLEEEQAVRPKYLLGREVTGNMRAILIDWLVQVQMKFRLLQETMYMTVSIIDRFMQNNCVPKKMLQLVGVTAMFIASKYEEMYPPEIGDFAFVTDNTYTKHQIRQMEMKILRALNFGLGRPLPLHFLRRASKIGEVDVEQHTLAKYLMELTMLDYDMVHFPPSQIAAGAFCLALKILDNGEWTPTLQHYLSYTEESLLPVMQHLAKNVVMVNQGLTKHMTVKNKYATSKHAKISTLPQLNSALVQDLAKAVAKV

Compound	IC50 (CDK2/Cyclin E) [nM]	IC50 (CDK1/Cyclin B1, GST-tag) [nM]
CC(C)(O)c1cnc(Nc2cc([C@H]3CC[C@@H](OC(=O)N4CCC4(C)C)C3)[nH]n2)cn1 [Example 50, (1R,3S)-3-(3-((5-(2-hydroxypropan-2-yl)pyrazin-2-yl)amino)-1H-pyrazol-5-yl)cyclopentyl 2,2-dimethylazetidine-1-carboxylate]	≤ 10	< 100
CC(C)NC(=O)O[C@@H]1CC[C@H](c2cc(Nc3cnc(C#N)cn3)n[nH]2)C1 [Example 53, (1R,3S)-3-(3-((5-cyanopyrazin-2-yl)amino)-1H-pyrazol-5-yl)cyclopentyl isopropylcarbamate]	≤ 10	100 to 500
CNC(=O)O[C@@H]1CC[C@H](c2cc(Nc3cncc(OCC4CC4)n3)n[nH]2)C1 [Example 56, (1R,3S)-3-(3-((6-(cyclopropylmethoxy)pyrazin-2-yl)amino)-1H-pyrazol-5-yl)cyclopentyl methylcarbamate]	≤ 10	< 100

From patent publication US20250074895A1, “CDK2 INHIBITORS AND METHODS OF MAKING AND USING SAME” (BLUEPRINT MEDICINES CORPORATION, priority 2021, published 2025)
